Source: US20150065442A1, “REDUCIBLE SELF-ASSEMBLED MICELLE DRUG DELIVERY SYSTEMS” (University of Manitoba, priority 2012, published 2015)

Legend:
[1] = tested on: hepatocellular carcinomatous HepG2 cells; test: Cellular uptake of DOX by confocal laser scanning microscopy; format: cell-based, human
Description: Confocal laser scanning microscopy (CLSM) was employed to examine the cellular uptake of DOX by incubating hepatocellular carcinomatous HepG2 cells with free DOX or the DOX-loaded micelles for 15 min, 2 h or 24 h. First, the HepG2 cells were seeded in culture dishes at a density of 2×10^5 cells/dish, overlaid with cover slips, and cultured for 24 h. Then, the cells were exposed to DOX-loaded micelles. After predetermined incubation times, the cover slips were removed and was washed with cold PBS three times after which, the cells were fixed by 4% paraformaldehyde in PBS at room temperature for 15 min. After fixation, the cells were permeabilized by 0.1% Triton X-100 in PBS for 10 min and then rinsed with PBS three times. The cells were incubated in 10 uM BODIPY® FL phallacidin/1% (w/v) BSA solution for 20 min and then rinsed with PBS three times (BODIPY is a registered trademark of Molecular Probes Inc., Eugene, Oreg., USA). The cells were then incubated in 10 μM Topro-3 for 20 min and then rinsed with PBS three times. The cover slips were set onto microscope slides and examined by CLSM.

[2] = tested on: MCF-7 human breast cancer cells; test: as above; format: cell-based
Description: Confocal laser scanning microscopy (CLSM) was employed to examine the cellular uptake of DOX by incubating MCF-7 human breast cancer cells with free DOX or DOX-loaded reducible self-assembled rPAE micelles or DOX-loaded non-reducible self-assembled nPAE micelles for 15 min and 2 h. First, the MCF-7 cells were seeded in 10-cm culture dishes at a density of 2×10^5 cells/dish, overlaid with cover slips, and cultured for 24 h. Then, the cells were exposed to DOX-loaded micelles. After the predetermined incubation times, the cover slips were removed and washed with cold PBS three times after which, the cells were fixed by 4% paraformaldehyde in PBS at room temperature for 15 min. After fixation, the cells were permeabilized by 0.1% Triton X-100 in PBS for 10 min and then rinsed with PBS three times. The cells were incubated in 10 uM BODIPY® FL phallacidin/1% (w/v) BSA solution for 20 min and then rinsed with PBS three times. The cells were then incubated in 10 μM Topro-3 for 20 min and then rinsed with PBS three times. The cover slips were set onto microscope slides and examined by CLSM.

HepG2 cells = test: MTT cytotoxicity (cell inhibition) assay; format: cell-based, human
Description: Hepatoma cells (HepG2) were used to investigate cell inhibition of DOX-loaded nanoparticles. HepG2 cells were obtained from the American Type Culture Collection and cultured with Dulbecco's Modified Eagle's Medium (DMEM, GIBCO) supplemented with 10% fetal bovine serum (FBS, GIBCO), 1.0×10^5 U/l penicillin (Sigma) and 100 mg/l streptomycin (Sigma) at 37° C. in 5% CO2.
The cytotoxicity of the copolymeric micelles loaded with DOX was determined using the MTT Cell Proliferation Kit (Biotium Inc., Hayward, Calif., USA). HepG2 cells were seeded into a 96-well tissue culture plate at a density of 8,000 cells per well and were incubated at 37° C. in 5% CO2. The growth medium was replaced with fresh DMEM after 24 h. Then the DOX-loaded PAE polymeric micelle solution and controls (free DOX and blank micelle solutions) were added into wells (six wells per sample). After 48 h of incubation, 10 μL MTT solution was added to each well and incubation continued for another 4 h. […] The absorbance of each well was measured using an ELISA plate reader at a test wavelength of 570 nm and a reference wavelength of 630 nm. The cell inhibition of samples was calculated as: […]
where Isample and Icontrol represent the intensity determined for cells treated with different samples and for control cells (untreated), respectively.

SMILES: COc1cccc2c1C(=O)c1c(O)c3c(c(O)c1C2=O)C[C@@](O)(C(=O)CO)C[C@@H]3O[C@H]1C[C@H](N)[C@H](O)[C@H](C)O1 [free DOX, doxorubicin]
- Intracellular distribution of DOX fluorescence ([1]; HepG2, 15-min incubation): evenly distributed in cell cytoplasm and the nuclei
- Intracellular distribution of DOX fluorescence ([1]; HepG2, 2 h exposure): DOX fluorescence accumulation was detected in and around the nuclei
- Cell morphology after exposure ([1]; HepG2, 24 h exposure): nucleus became distinctively swollen and the cytoplasm shrank
- Intracellular distribution of DOX fluorescence ([1]; HepG2, 24 h exposure): most of DOX fluorescence was distributed into the nucleus
- Intracellular DOX fluorescence ([2]; MCF-7, 15 min of incubation): fluorescing DOX molecules were observed intracellularly
- Intracellular DOX fluorescence ([2]; MCF-7, 2 hr of incubation): accumulations of DOX molecules around the nuclei
- Cytotoxicity, dose dependence (HepG2 cells): increases with increasing dose
